# According to US9546129B2, “DTPA prodrugs, compositions thereof, and methods of using the same” (priority 2012, dated 2017):
# How the values were obtained:
# [1] = Gadolinium complex stability constant by titration; type: binding; settings: 3-5 mM in 0.1 M KCl, equimolar gadolinium chloride
# Description: The stability constant for a complex between C2E2 and gadolinium (i.e., the C2E2-Gd complex) was determined by titration. C2E2 solutions (3-5 mM) were prepared in 0.1 M KCl. Gadolinium chloride was added in equimolar concentrations. The experiment consisted of a titration with base, followed by a titration with acid. After each addition of titrant, a 30 second equilibration time passed before pH measurement with a Seven Easy pH meter and (Ag/AgCl reference) glass electrode (Metler Tolledo). The pKa values previously determined, as described in Example 9, were used to calculate the gadolinium stability constant using […] software. The stability of the C2E2-Gd complex was log K 17.34±1.13, which lies between those of EDTA and DTPA (17.0 and 22.5, respectively).
# [2] = test system: Salmonella typhimurium tester strains TA98, TA100, TA1535, and TA1537; assay: Bacterial Reverse Mutation Assay (Salmonella); type: cell-based
# Description: The objective of this study was to evaluate C2E2 for its ability to induce reverse mutations at the histidine locus in Salmonella typhimurium tester strains TA98, TA100, TA1535, and TA1537, and at the tryptophan locus of Escherichia coli (E. coli) strain WP2uvrA in the presence or absence of an exogenous mammalian metabolic activation system (S9).
# C2E2 was evaluated in an initial mutagenicity assay in all five tester strains at dose levels of 5.00, 16.0, 50.0, 160, 500, 1600, and 5000 μg/plate with and without S9. C2E2 was from Lot 050 obtained using Method 2. C2E2 was prepared in Cell Culture Grade Water vehicle and formed a transparent colorless solution. […] The reductions in the numbers of revertant colonies and the enhanced background lawn growth are indicative of C2E2 treatment-related toxicity. With exception to the enhanced background lawn in TA1537 without S9, all other background lawns in all strains, with and without S9, were normal indicating there was appropriate bacterial growth during treatment to express a mutagenic event. There were no relevant increases in the numbers of revertant colonies observed at any dose level with any strain in the absence or presence of S9 metabolic activation.
# [3] = Stability of C2E2 in plasma (human); type: in vitro ADME; settings: 37° C.
# Description: Prior to the study, 975 μL of plasma (Rat, Beagle and Human) was preheated to 37° C. in Eppendorff tubes and the test compound (C2E2) was prepared in DI water (10 mg/mL). The C2E2 was from Lot 050 obtained using Method 2. To initiate the study, 25 μL of the C2E2 solution was added to the pre-heated plasma and briefly vortexed, to mix. At 0, 15, 30, 60 and 120 minutes a 100 μL sample of plasma was taken, an equal volume of cold acetonitrile was added and mixed to precipitate plasma proteins. Samples were centrifuged at 4° C. and 14,000×g for 10 minutes to remove precipitated proteins, the supernatant was collected and the C2E2 concentration determined by HPLC-CAD. All conditions were repeated in triplicate.
# HPLC Detection Methods: C2E2 analysis was performed on a prominence HPLC (Shimadzu Corporation, Kyoto, Japan) equipped with a Corona Ultra charged […] detector (CAD) (Thermo scientific, Sunnyvale, Calif.). […]
# The gradient is 0.01-34.99 min: 22% B; 35.00-44.99 min: 33% B; 45.00-60.00 min: 38% B. The flow rate is 1.0 mL/min, a Thermo Hypersil ODS column (150 mm 4.6 mm i.d. with 5.0 μm particles) will be used, injection volume will be 10 μL and column oven temperature maintained at 25° C. […] The limit of quantification is 0.35 μg/mL. […]
# [4] = Single dose toxicology study in rats (UNC-11.240-RMTD); type: in vivo; settings: rat
# [5] = Protonation constants by potentiometric titration; type: physicochemical; settings: 5 mM ligand in 0.15 M KCl
# Description: The protonation constants for C2E2 were determined by preparing a 5 mM solution of free ligand in 0.15 M KCl. The constants were calculated from three replicates, with each experiment consisting of a titration with acid, followed by a titration with base. After each addition of titrant, a 30 second equilibration time passed before pH measurement with a Seven Easy pH meter and (Ag/AgCl reference) glass electrode (Metler Tolledo). At the end of the titrations, the presence of C2E2 was confirmed by HPLC-CAD. Evaluation of the titration curve for C2E2 (FIG. 31) identified 6 pKa values that correspond with the three tertiary amines and three carboxylic acids. The values were determined by refinement using […] software. The pKa values determined for C2E2 are consistent with DTPA analogues previously investigated for use as MRI contrast agents with two carboxylic acids are functionalized such as DTPA-BMA and DTPA-BBA (Rizkalla, E. N., et al., Inorganic Chemistry, 32, 582-586, (1993) and Geraldes C. F., et al., Journal of the Chemical Society-Dalton Transactions, 327-335 (1995)).
smiles,measurement,setting,value
"CCOC(=O)CN(CCN(CCN(CC(=O)O)CC(=O)OCC)CC(=O)O)CC(=O)O [C2E2, 6,9-bis(carboxymethyl)-3-(2-ethoxy-2-oxoethyl)-11-oxo-12-oxa-3,6,9-triazatetradecan-1-oic acid]","Stability of the gadolinium complex, log K",[1],17.34±1.13
same,Dose level with reductions in mean numbers of revertant colonies (toxicity),"[2]; TA100, TA1535, TA1537, without S9",5000 μg/plate
same,Dose level with reductions in mean numbers of revertant colonies (toxicity),"[2]; TA1535, TA1537, with S9",≥ 500 μg/plate
same,Mutagenicity (reverse mutations at the histidine locus),"[2]; up to 5000 μg/plate, with and without S9",negative
same,C2E2 remaining,[3]; after 2 hours,approximately 90%
same,Metabolism in plasma (observation),[3]; up to two hours,minimal or not detected
same,Maximum tolerated single dose,[4],2000 mg/kg
same,PKa2,[5],4.68 ± 0.02
same,pKa1,[5],9.40
same,pKa3,[5],3.52 ± 0.03
same,pKa4,[5],1.87 ± 0.05
same,pKa5,[5],1.76
same,pKa6,[5],1.45
